The text below walks through data of patent US20250280827A1, “An antifungal composition comprising natamycin and at least one insecticide” (priority 2021, published 2025).

Holding throughout (assay type): in vivo
Test [1] has as its system Colletotrichum spp. The test can be described thus: Antifungal effect against Colletotrichum infection on wounded skin of pepper fruits (Colby synergy). An excerpt: wherein X and Y are the observed antifungal activities (in %) of the individual active ingredients x and y, respectively. If the observed antifungal activity (O in %) of the combination exceeds the expected antifungal activity (E in %) of the combination and the synergy factor O/E is thus >1.0, the combined application of the active ingredients leads to a synergistic antifungal effect. […]
For the treatment, 5 wounds per pepper side were done as previously described. In addition, one wound was done as negative control. Depending on the number of sides of the pepper, 3 to 4 treatments were done per paprika. Per wound 10 μl of treatment was placed on the wound. The treatments were let to dry in a down flow cabinet for about 30 minutes. After drying 5 μl spore suspension at a concentration of 10^7 spores per ml were placed on the wounds. The fungus was isolated from Colletotrichum-infected plant material and identified using techniques known to the person skilled in the art. The pepper were placed as described previously in a transparent container, with the difference that the containers were then placed in a transparent plastic zipper bag. The bags with peppers were placed at room temperature and in the dark for two days. After that the size of the lesions were measured. Assessment of the infection area was 4 days after inoculation. Experiment was performed in 5-fold.
The fungus was isolated from Colletotrichum-infected plant material and identified using techniques known to the person skilled in the art. Assessment of the infection area was performed 5 days after inoculation. Experiment was performed in 5-fold.
The active ingredient imidacloprid was formulated as described in Table 2. Imidacloprid belonging to IRAC Group 4. The fungus was isolated from Colletotrichum-infected plant material and identified using techniques known to the person skilled in the art. Assessment of the infection area was performed 5 days after inoculation. Experiment was performed in 5-fold.
The fungus was isolated from Colletotrichum-infected plant material and identified using techniques known to the person skilled in the art. Assessment of the efficacy was 5 days after inoculation. Experiment was performed in 5-fold.
The fungus was isolated from Colletotrichum-infected plant material and identified using techniques known to the person skilled in the art. Assessment of the infection area was performed 6 days after inoculation. Experiment was performed in 5-fold.
The fungus was isolated from Colletotrichum-infected plant material and identified using techniques known to the person skilled in the art. Assessment of the infection area was performed 4 days after inoculation. Experiment was performed in 5-fold.

Test [2] deals with Botrytis cinerea. The test can be described thus: Antifungal effect against Botrytis cinerea infection on wounded peel of banana fruits (Colby synergy). The following applies: 3 days after inoculation. From the text:
(§1) wherein X and Y are the observed antifungal activities (in %) of the individual active ingredients x and y, respectively. If the observed antifungal activity (O in %) of the combination exceeds the expected antifungal activity (E in %) of the combination and the synergy factor O/E is thus >1.0, the combined application of the active ingredients leads to a synergistic antifungal effect.
(§2) Application: The broad bean pods were washed under tap water, and were subsequently surface sterilized by placing them in a 0.1% sodium hypochlorite solution for 5 minutes. The pods were then rinsed with tap water and dried. Transparent plastic containers were prepared by placing a piece of absorbing paper in the container and adding 25 ml of water, one container per treatment was used. The pods were cut in two, and two halve pods were incubated per box. The skin of broad bean pods was damaged with a needle, ø 2 mm and to a depth of about 3 mm into the fruit, with—depending on the size of the pod—2 to 4 wounds per half pod. In total, 6 wounds were incubated per treatment, of which 1 was used as a control. A volume of 20 microliter of a natamycin/insecticide composition, as presented herein above, was applied by pipette to each wound. The treatments were then left to air-dry. Once dried, a mycelium plug of Sclerotinia sclerotiorum was placed upside down on each wound, so that the mycelium was in direct contact with the wound. Per treatment 5 wounds were inoculated with the fungus, while the 6th and last wound was used as negative non-inoculated control. After inoculation, the containers were directly closed with a transparent plastic lid.
The infection area was measured 5 days after inoculation.
A few changes were made for the banana experiments: 5 wounds per banana were made, on each wound 40 microliter of treatments was pipetted. The treatments were then left to air-dry. Once dried, 2 microliter of a freshly prepared inoculum was pipetted on four of the wounds. The inoculum consists of […] potato dextrose broth (PDB) medium containing Botrytis cinerea spores at a concentration of 10^6 spores per ml. The fifth wound was used as negative non-inoculated control. Experiment was performed in 4-fold.
Assessment of the infection area was performed 3 days after inoculation. Experiment was performed in 4-fold.
Imidacloprid was formulated as described in Table 2. Assessment of the efficacy was 5 days after inoculation. Experiment was performed in 4-fold.

In test [3] the test system is Sclerotinia sclerotiorum. The test can be described thus: Antifungal effect against Sclerotinia sclerotiorum infection on wounded skin of broad bean pods (rot area, Colby synergy).
Source text: The Colby equation (Colby, 1967. Weeds 15:20-22) calculates the expected antifungal activity (E in %) of a combination comprising more than one active ingredients:
as §1
• 1) Control (without natamycin and lambda-cyhalothrin) • 2) Natamycin at a level of 15 ppm • 3) Lambda-cyhalothrin (in the product KARATE ZEON® of Syngenta) at a levels of 0.15 ppm, 0.6 ppm, 3 ppm and 15 ppm • 4) Natamycin at a level of 15 ppm combined with lambda-cyhalothrin at levels of 0.15 ppm, 0.6 ppm, 3 ppm or 15 ppm.
Used pathogen: Sclerotinia sclerotiorum.
as §2
All pods were kept at room temperature (20° C.). Wounds of the pods were checked after 30 h of incubation.
Replicates: All treatments for the broad bean pod experiment were performed on two individual pod halves resulting in 5 wounds per treatment, while a sixth wound served as control.
The experiments were performed as described in Example 1.
The experiments were performed as described in Example 1. Assessment of the infection area was 23 h after inoculation. Experiment was performed in 5-fold.
The experiments were performed as described in Example 1. Thiamethoxam belongs to IRAC Group 4. Assessment of the infection area was 31 hours after inoculation. Experiment was performed in 5-fold.
The experiments were performed as described in Example 1. The product SPECTRE® of company (Adama) containing the active ingredient chlorfenapyr belonging to IRAC Group 13 was tested. Assessment of the infection area was 23 hours after inoculation. Experiment was performed in 5-fold.

[4] abbreviates: natamycin:fipronil 0:0.01 ppm, 6 days after inoculation, Table 19.
Setting [5] is: natamycin:fipronil 0:0.04 ppm, 6 days after inoculation, Table 19.
Where [6] appears, read: natamycin:fipronil 0:1 ppm, 6 days after inoculation, Table 19.
[7] abbreviates: natamycin-insecticide 0:0.01 ppm, 5 days after inoculation, Table 15.
Setting [8] is: natamycin-insecticide 0:0.04 ppm, 5 days after inoculation, Table 15.
Where [9] appears, read: natamycin-insecticide 0:1 ppm, 5 days after inoculation, Table 15.
The mark [10] stands for this setting: natamycin-insecticide 0:0.004 ppm, Table 14B.
The mark [11] stands for this setting: natamycin-insecticide 0:0.01 ppm, Table 14A.
Where [12] appears, read: natamycin-insecticide 0:0.04 ppm, Table 14A.
The mark [13] stands for this setting: natamycin-insecticide 0:1 ppm, Table 14A.
Where [14] appears, read: natamycin-insecticide 0-0.15 ppm, 23 h after inoculation, Table 7.
[15] abbreviates: natamycin-insecticide 0-0.6 ppm, 23 h after inoculation, Table 7.
Where [16] appears, read: natamycin-insecticide 0-3 ppm, 23 h after inoculation, Table 7.
Setting [17] is: natamycin-insecticide 0-15 ppm, 23 h after inoculation, Table 7.
[18] abbreviates: natamycin-insecticide 0:0.01 ppm, 5 days after inoculation, Table 17.
[19] abbreviates: natamycin-insecticide 0:0.04 ppm, 5 days after inoculation, Table 17.
Setting [20] is: natamycin-insecticide 0:1 ppm, 5 days after inoculation, Table 17.
Where [21] appears, read: natamycin-insecticide 0-0.15 ppm, 23 hours after inoculation, Table 9.
Where [22] appears, read: natamycin-insecticide 0-0.6 ppm, 23 hours after inoculation, Table 9.
Setting [23] is: natamycin-insecticide 0-3 ppm, 23 hours after inoculation, Table 9.
The mark [24] stands for this setting: natamycin-insecticide 0-15 ppm, 23 hours after inoculation, Table 9.
Where [25] appears, read: natamycin-insecticide 0-0.15 ppm, 31 hours after inoculation, Table 8.
Setting [26] is: natamycin-insecticide 0-0.6 ppm, 31 hours after inoculation, Table 8.
[27] abbreviates: natamycin-insecticide 0-3 ppm, 31 hours after inoculation, Table 8.
Where [28] appears, read: natamycin-insecticide 0-15 ppm, 31 hours after inoculation, Table 8.
Where [29] appears, read: natamycin:abamectin 0:0.01 ppm, 4 days after inoculation, Table 20.
The mark [30] stands for this setting: natamycin:abamectin 0:0.04 ppm, 4 days after inoculation, Table 20.
Where [31] appears, read: natamycin-insecticide 0:0.01 ppm, 4 days after inoculation, Table 13.
The mark [32] stands for this setting: natamycin-insecticide 0:0.04 ppm, 4 days after inoculation, Table 13.
The mark [33] stands for this setting: natamycin-insecticide 0:1 ppm, 4 days after inoculation, Table 13.

On to `N#Cc1nn(-c2c(Cl)cc(C(F)(F)F)cc2Cl)c(N)c1[S+]([O-])C(F)(F)F` (racemic) [fipronil, (±)-5-amino-1-(2,6-dichloro-α,α,α-trifluoro-p-tolyl)-4-trifluoromethyl sulfinylpyrazole-3-carbonitrile], for which the results for the Avg infected area in test [1] (setting [4]), in test [1] (setting [5]) and in test [1] (setting [6]) were 88.2 mm^2, 76.8 mm^2 and 80.4 mm^2, respectively. Besides, the Observed antifungal activity is given as −76.1% in test [1] (setting [4]), −53.4% in test [1] (setting [5]) and −60.5% in test [1] (setting [6]).
With `CC1(C)[C@H](C(=O)O[C@H](C#N)c2cccc(Oc3ccccc3)c2)[C@@H]1C=C(Cl)Cl` [alpha-cypermethrin, [(S)-cyano-(3-phenoxyphenyl)methyl] (1R,3R)-3-(2,2-dichloroethenyl)-2,2-dimethylcyclopropane-1-carboxylate], the Avg infected area in test [1] (setting [7]) stood at 44.8 mm2; in test [1] (setting [8]), 22.5 mm2; in test [1] (setting [9]) it was 20.6 mm2; in test [2] (setting [10]) it was 6.2 mm2; in test [2] (setting [11]), 9.0 mm2; in test [2] (setting [12]), 9.1 mm2. In addition, in test [2] (setting [13]), the Avg infected area is recorded as 9.9 mm2. Moreover, the Observed antifungal activity is given as −6.1% in test [1] (setting [7]); 46.7% in test [1] (setting [8]); 51.2% in test [1] (setting [9]); 37.2% in test [2] (setting [10]); 20.5% in test [2] (setting [11]); 19.8% in test [2] (setting [12]). Moreover, in test [2] (setting [13]), the Observed antifungal activity was 12.8%.
With `C/C=C(\C)C(=O)O[C@H]1C[C@@H](OC(C)=O)[C@@]2(C(=O)OC)CO[C@H]3[C@@H](O)[C@@](C)([C@]45O[C@@]4(C)[C@H]4C[C@@H]5O[C@@H]5OC=C[C@@]54O)[C@H]4[C@]1(CO[C@]4(O)C(=O)OC)[C@@H]32` [azadirachtin], the Avg infected area turned out to be 80.2 mm2 in test [3] (setting [14]), 82.0 mm2 in test [3] (setting [15]), 98.3 mm2 in test [3] (setting [16]) and 123.1 mm2 in test [3] (setting [17]). Moreover, the Observed antifungal activity in test [3] (setting [14]) is 41.3%; in test [3] (setting [15]) it was 40%; in test [3] (setting [16]), 28.1%; in test [3] (setting [17]), 9.9%.
`CNC(=O)c1cc(Cl)cc(C)c1NC(=O)c1cc(Br)nn1-c1ncccc1Cl` [chlorantraniliprole, 5-bromo-N-[4-chloro-2-methyl-6-(methylcarbamoyl)phenyl]-2-(3-chloropyridin-2-yl) pyrazole-3-carboxamide]: the figures for the Avg infected area in test [1] (setting [18]), in test [1] (setting [19]) and in test [1] (setting [20]) were 38.8 mm2, 55.6 mm2 and 66.4 mm2, respectively. Also, the Observed antifungal activity in test [1] (setting [18]) is reported as 29.8%; in test [1] (setting [19]) it was −0.7%; in test [1] (setting [20]) it was −20.2%.
On to `CCOCn1c(-c2ccc(Cl)cc2)c(C#N)c(Br)c1C(F)(F)F` [chlorfenapyr], for which the Avg infected area in test [3] (setting [21]) worked out at 86.9 mm2; in test [3] (setting [22]), 71.3 mm2; in test [3] (setting [23]), 92.3 mm2; in test [3] (setting [24]) it was 94.9 mm2. Moreover, the Observed antifungal activity in test [3] (setting [21]) worked out at 23.6%; in test [3] (setting [22]), 37.3%; in test [3] (setting [23]), 18.8%; in test [3] (setting [24]), 16.5%.
For the compound `CN1COCN(Cc2cnc(Cl)s2)C1=N[N+](=O)[O-]` [thiamethoxam, N-[3-[(2-chloro-1,3-thiazol-5-yl)methyl]-5-methyl-1,3,5-oxadiazinan-4-ylidene]nitramide], the Avg infected area in test [3] (setting [25]) is listed as 250.6 mm2; in test [3] (setting [26]), 270.9 mm2; in test [3] (setting [27]), 253.2 mm2; in test [3] (setting [28]) it was 254.1 mm2. Further, the Observed antifungal activity is given as 2.9% in test [3] (setting [25]), −4.9% in test [3] (setting [26]), 1.9% in test [3] (setting [27]) and 1.6% in test [3] (setting [28]).
Take abamectin: in test [1] (setting [29]), the Avg infected area is given as 29.0 mm2 and the Observed antifungal activity is recorded as −29.3%. In test [1] (setting [30]), the Avg infected area is reported as 30.7 mm2 and the Observed antifungal activity is listed as −37.0%.
For the compound “emamectin benzoate [emamection benzoate]”, the figures for the Avg infected area in test [1] (setting [31]), in test [1] (setting [32]) and in test [1] (setting [33]) were 30.6 mm2, 16.6 mm2 and 24 mm2, respectively. For the same compound, the Observed antifungal activity is on record as −90.1% in test [1] (setting [31]), −3.5% in test [1] (setting [32]) and −49.1% in test [1] (setting [33]).
